The text below walks through data of article PMC8708492, “Homing Peptide-Based Targeting of Tenascin-C and Fibronectin in Endometriosis” (Nanomaterials, 2021).

The test system of one test is 12Z cells. Nature of the test: Binding of peptide-displaying T7 phages to cultured cells (plaque assay). Further details: species or system human. Conditions: peptide displayed on T7 phage, 12Z cells in suspension, 4 °C, 1 h, washed, N = 3. The method, then: (§1) Peptide-displaying T7 bacteriophages were prepared by cloning nucleotide sequences coding for different peptides into phage genomic DNA to be expressed on the phage surface as C-terminal fusions to capsid protein. The complementary oligonucleotides were annealed, and the cloning was performed according to the manufacturer’s protocol using the T7Select® 415-1 Cloning Kit (Millipore, 70015-3, Merck KGaA, Darmstadt, Germany). Peptide-displaying phage clones were thereafter amplified in complementing host bacterial cells BLT5403 and purified with polyethylene glycol according to an established protocol.
(§2) Prior to phage addition, 12Z and HESC cells were detached, washed with PBS, and resuspended in 0.5% BSA containing DMEM. Phages expressing a single peptide of interest (5 × 10^7 PFU/mL) were added to 5 × 10^7 cells, wherein insertless phage was used as a negative control. Incubation with phage clones was carried out on a slowly rocking platform at 4 °C for 1 h. Cells were washed four times with 0.5% BSA containing DMEM to eliminate unbound phages. Finally, the cells together with bound phages were resuspended in 1% NP40 containing LB solution, and plaque assay was performed as described earlier. Briefly, the amount of phage in cell lysates was determined by titering using Escherichia coli strain BLT5615 in LB medium containing 2 mM IPTG.
(§3) Figure 1 Binding of peptide-phages to cultured 12Z and HESC cells. Cells were incubated with the different peptide-displaying phages at 4 °C for 1 h, washed, and phage binding quantified by plaque assay. The phage binding is represented as a fold over insertless phage. N = 3, error bars = ±SEM. *** p < 0.001 (compared with insertless phage).

The subject of a further test is HESC cells. Described as above. On the set-up: species or system human. Particulars: peptide displayed on T7 phage, HESC cells in suspension, 4 °C, 1 h, washed, N = 3. The method, then:
as §1, §2, §3

With AGRGRLVR (displayed on T7 phage) [PL3], the “phage binding, fold over insertless phage” value (“phage binding, fold” below) with 12Z cells and in the test with HESC cells was 4–6 fold each time.

In the case of “C * RGDKGPDC * (disulfide) [iRGD, disulfide-cyclised peptide targeting angiogenic αv integrins and NRP-1]”, the “phage binding, fold” value in the test on 12Z cells was 3 fold; in the test on HESC cells it was 9 fold.

Turning to PPRRGLIKLKTS [PL1], the “phage binding, fold” value in the test with 12Z cells and with HESC cells was 13–16 fold throughout.

RPARPAR: the “phage binding, fold” value is given as “low/background binding” with 12Z cells and ~ 2 fold in the test on HESC cells.

Regarding RTRLHTR [EM2, receptor unknown], the “phage binding, fold” value was “low/background binding” in the test on 12Z cells and ~ 2 fold in the test with HESC cells.

Consider VRRADNRPG [EM1, receptor CNGB3], for which the “phage binding, fold” value with 12Z cells is on record as “low/background binding”.
